According to patent US20150313228A1, “SYNERGISTIC HERBICIDAL COMBINATIONS AND METHODS OF USE” (priority 2012, published 2015):

System: broad-leaf and grass weed species
Assay: Field testing of pre-emergence application of dicamba and acetochlor in Argentina and/or South Africa (Example 10);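 also: percent weed control in field trials, rated at 14 days (early) and 28 days (late) after treatment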
Conditions: for percent control Y (DIACAMBA OR ATRAZINE ALONE): early rating (14 day); for Y (dicamba alone): late rating (28 day)

## COc1c(Cl)ccc(Cl)c1C(=O)O [Dicamba, 3,6-dichloro-2-methoxy benzoic acid]
AMADE, 560 g/ha
  percent control Y (DIACAMBA OR ATRAZINE ALONE): 99.3%
  Y (dicamba alone): 83.1%
AMAQU, 280 g/ha
  percent control Y (DIACAMBA OR ATRAZINE ALONE): 52.9%
  Y (dicamba alone): 40.6%
AMAQU, 560 g/ha
  percent control Y (DIACAMBA OR ATRAZINE ALONE): 61.4%
  Y (dicamba alone): 54.3%
ANOCR, 280 g/ha
  percent control Y (DIACAMBA OR ATRAZINE ALONE): 53.0%
  Y (dicamba alone): 40.5%
ANOCR, 560 g/ha
  percent control Y (DIACAMBA OR ATRAZINE ALONE): 66.1%
  Y (dicamba alone): 54.5%
BIDPI, 280 g/ha
  percent control Y (DIACAMBA OR ATRAZINE ALONE): 2.3%
  Y (dicamba alone): 5.0%
BIDPI, 560 g/ha
  percent control Y (DIACAMBA OR ATRAZINE ALONE): 74.5%
  Y (dicamba alone): 72.5%
BRAER, 560 g/ha
  Y (dicamba alone): 67.5%
CHEAL, 280 g/ha
  percent control Y (DIACAMBA OR ATRAZINE ALONE): 56.7%
  Y (dicamba alone): 38.2%
CHEAL, 560 g/ha
  percent control Y (DIACAMBA OR ATRAZINE ALONE): 96.7%
  Y (dicamba alone): 86.7%
CHRGA, 280 g/ha
  Y (dicamba alone): 6.2%
CHRGA, 560 g/ha
  percent control Y (DIACAMBA OR ATRAZINE ALONE): 98.0%
  Y (dicamba alone): 100.0%
COMBE, 280 g/ha
  percent control Y (DIACAMBA OR ATRAZINE ALONE): 2.7%
  Y (dicamba alone): 10.0%
COMBE, 560 g/ha
  percent control Y (DIACAMBA OR ATRAZINE ALONE): 75.0%
  Y (dicamba alone): 76.3%
CONFA, 280 g/ha
  percent control Y (DIACAMBA OR ATRAZINE ALONE): 1.3%
  Y (dicamba alone): 6.2%
CONFA, 560 g/ha
  percent control Y (DIACAMBA OR ATRAZINE ALONE): 17.5%
  Y (dicamba alone): 55.0%
CYNDA, 280 g/ha
  percent control Y (DIACAMBA OR ATRAZINE ALONE): 28.8%
CYNDA, 560 g/ha
  percent control Y (DIACAMBA OR ATRAZINE ALONE): 47.7%
CYPES, 280 g/ha
  percent control Y (DIACAMBA OR ATRAZINE ALONE): 1.0%
  Y (dicamba alone): 5.0%
CYPES, 560 g/ha
  percent control Y (DIACAMBA OR ATRAZINE ALONE): 65.0%
  Y (dicamba alone): 63.3%
CYPRO, 280 g/ha
  percent control Y (DIACAMBA OR ATRAZINE ALONE): 42.3%
  Y (dicamba alone): 0.8%
CYPRO, 560 g/ha
  percent control Y (DIACAMBA OR ATRAZINE ALONE): 44.4%
  Y (dicamba alone): 15.4%
DATFE, 280 g/ha
  percent control Y (DIACAMBA OR ATRAZINE ALONE): 18.5%
  Y (dicamba alone): 16.7%
DATFE, 560 g/ha
  percent control Y (DIACAMBA OR ATRAZINE ALONE): 59.6%
  Y (dicamba alone): 58.5%
DIGER, 280 g/ha
  percent control Y (DIACAMBA OR ATRAZINE ALONE): 2.5%
  Y (dicamba alone): 10.0%
DIGER, 560 g/ha
  percent control Y (DIACAMBA OR ATRAZINE ALONE): 98.0%
  Y (dicamba alone): 100.0%
DIGSA, 280 g/ha
  percent control Y (DIACAMBA OR ATRAZINE ALONE): 32.7%
  Y (dicamba alone): 23.8%
DIGSA, 560 g/ha
  percent control Y (DIACAMBA OR ATRAZINE ALONE): 45.6%
  Y (dicamba alone): 32.7%
DTTAE, 280 g/ha
  Y (dicamba alone): 6.2%
DTTAE, 560 g/ha
  Y (dicamba alone): 100.0%
ELEAF, 280 g/ha
  percent control Y (DIACAMBA OR ATRAZINE ALONE): 100.0%
  Y (dicamba alone): 8.0%
ELEAF, 560 g/ha
  percent control Y (DIACAMBA OR ATRAZINE ALONE): 100.0%
  Y (dicamba alone): 97.5%
HIBCA, 280 g/ha
  percent control Y (DIACAMBA OR ATRAZINE ALONE): 1.8%
  Y (dicamba alone): 11.3%
HIBCA, 560 g/ha
  percent control Y (DIACAMBA OR ATRAZINE ALONE): 42.5%
  Y (dicamba alone): 55.0%
IPOBA, 280 g/ha
  Y (dicamba alone): 8.8%
IPOBA, 560 g/ha
  Y (dicamba alone): 0.0%
IPOPD, 280 g/ha
  percent control Y (DIACAMBA OR ATRAZINE ALONE): 2.6%
  Y (dicamba alone): 10.0%
IPOPD, 560 g/ha
  percent control Y (DIACAMBA OR ATRAZINE ALONE): 21.3%
  Y (dicamba alone): 45.0%
OVERALL, 280 g/ha
  percent control Y (DIACAMBA OR ATRAZINE ALONE): 36.2%
OVERALL, 560 g/ha
  percent control Y (DIACAMBA OR ATRAZINE ALONE): 57.4%
Overall, 280 g/ha
  Y (dicamba alone): 29.8%
Overall, 560 g/ha
  Y (dicamba alone): 51.7%
PERCENT WEED FREE, 280 g/ha
  percent control Y (DIACAMBA OR ATRAZINE ALONE): 64.5%
PERCENT WEED FREE, 560 g/ha
  percent control Y (DIACAMBA OR ATRAZINE ALONE): 74.2%
POROL, 280 g/ha
  percent control Y (DIACAMBA OR ATRAZINE ALONE): 35.8%
  Y (dicamba alone): 27.8%
POROL, 560 g/ha
  percent control Y (DIACAMBA OR ATRAZINE ALONE): 49.2%
  Y (dicamba alone): 45.0%
Percent Weed Free, 280 g/ha
  Y (dicamba alone): 43.4%
Percent Weed Free, 560 g/ha
  Y (dicamba alone): 54.3%
RCHBR, 280 g/ha
  percent control Y (DIACAMBA OR ATRAZINE ALONE): 2.4%
  Y (dicamba alone): 8.5%
RCHBR, 560 g/ha
  percent control Y (DIACAMBA OR ATRAZINE ALONE): 89.0%
  Y (dicamba alone): 88.8%
TAGMI, 280 g/ha
  percent control Y (DIACAMBA OR ATRAZINE ALONE): 0.0%
  Y (dicamba alone): 0.0%
TAGMI, 560 g/ha
  percent control Y (DIACAMBA OR ATRAZINE ALONE): 92.5%
  Y (dicamba alone): 64.3%
XANST, 280 g/ha
  percent control Y (DIACAMBA OR ATRAZINE ALONE): 15.3%
  Y (dicamba alone): 28.8%
XANST, 560 g/ha
  percent control Y (DIACAMBA OR ATRAZINE ALONE): 43.3%
  Y (dicamba alone): 32.5%
